Laboratory results reported in US10912814B2, “Combination formulation of three antiviral compounds” (priority 2016, dated 2021).
Where two headings read alike, the source gives them in different places.

What was measured:
[1] = Physical (solid-state) stability, XRPD; assay type: physicochemical; settings: for tendency to crystallize in the presence of pre-existing crystalline voxilaprevir: spiked SOF/VEL SSD/VOX SSD tablets
Description: As described previously, Form VIII of voxilaprevir is characterized by an X-ray powder diffractogram comprising the following peaks (±0.2°): at 7.8, 8.2, and 20.2°2θ, as determined on a diffractometer using Cu-Kα radiation.
Voxilaprevir SSD is hygroscopic, with a reversible weight gain of 11% when cycled between 0% and 90% RH at 25° C.
The impact of voxilaprevir SSD potency on the chemical and physical stability thereof was also evaluated (Table 5). This development study compared the properties of typical voxilaprevir SSD with 50% w/w voxilaprevir/50% w/w copovidone (Lot C) to those of sub-potent voxilaprevir SSD with 40% w/w voxilaprevir/60% w/w copovidone (Lot D) and super-potent voxilaprevir SSD with 60% w/w voxilaprevir/40% w/w copovidone (Lot E). Voxilaprevir SSD was packaged in a designated commercial packaging configuration (i.e., polyethylene bags sealed in aluminum bags with 5% w/w desiccant) and stored for 6 months at both 25° C./60% RH and 40° C./75% RH. […] All samples remained amorphous by XRPD throughout the duration of the study.
The impact of reprocessed voxilaprevir SSD on the chemical and physical stability of voxilaprevir SSD was additionally evaluated. Voxilaprevir was reprocessed (re-dissolved, spray-dried, and secondary dried) twice and packaged in a designated commercial packaging configuration (i.e., polyethylene bags sealed in aluminum bags with 5% w/w desiccant) and stored for 6 months at both 25° C./60% RH and 40° C./75% RH. […] All samples remained amorphous by XRPD throughout the duration of the study.
In some embodiments, the film-coated tablets were packaged in 75 and 100 mL white HDPE bottles (Lots A and B, respectively, as described in Tables 11A, 11B) with 1 g silica gel desiccant canisters and a polyester fiber coil. The 75 and 100 mL HDPE bottles contained fourteen and twenty eight tablets, respectively. […] The packaged tablets (14 and 28 counts) were evaluated for stability at 40° C./75% RH and 25° C./60% RH. Additionally, the 14-count bottles (without cap) were evaluated for stability under open conditions at 40° C./75% RH. […]

[2] = Tablet dissolution in 50 mM sodium acetate buffer pH 5.0 with 2.0% w/v Polysorbate 80 and 0.001% w/v BHT, 75 rpm, 900 mL, 37° C., USP Type II; assay type: physicochemical; settings: for dissolution at 30 minutes: after 4 weeks open at 40° C./75% RH
[3] = as above; assay type: physicochemical; settings: tablets containing voxilaprevir SSD
Description: FIGS. 10-12 depict additional dissolution profiles for the sofosbuvir/velpatasvir SSD/voxilaprevir SSD tablets having the formulation described in Table 13 and which were used in phase 1, 2, and 3 clinical studies, where the dissolution testing was conducted at pH 5.0 acetate buffer containing 2.0% w/v polysorbate 80. Four batches of the sofosbuvir/velpatasvir SSD/voxilaprevir SSD tablets were tested, with Batch A manufactured at 100 kg and Batches B, C and D manufactured at 145 kg. All other aspects of the formulation and manufacturing process were otherwise equivalent. The four batches were packed in the same commercial configuration: 28 count, 100 mL HPDE bottle with 1 g silica gel desiccant canister and a polyester fiber coil. […] Moreover, for Batch A, the amount dissolved at 30 min remained between 98 and 100% for sofosbuvir, between 90 and 92% for velpatasvir SSD, and between 89 and 93% for voxilaprevir SSD. […] For Batch D, the amount dissolved at 30 min remained at 100% for sofosbuvir, between 90 and 91% for velpatasvir SSD, and between 89 and 91% for voxilaprevir SSD. Release of velpatasvir SSD and voxilaprevir SSD from the sofosbuvir/velpatasvir SSD/voxilaprevir SSD tablets associated with all four Batches was complete after 60 minutes.

[4] = BCS classification; assay type: physicochemical
[5] = Storage stability: appearance, assay/label strength (LS), total impurities/degradation products; assay type: physicochemical; settings: all conditions
Description: In some embodiments, the film-coated tablets were packaged in 75 and 100 mL white HDPE bottles (Lots A and B, respectively, as described in Tables 11A, 11B) with 1 g silica gel desiccant canisters and a polyester fiber coil. The 75 and 100 mL HDPE bottles contained fourteen and twenty eight tablets, respectively. Each HDPE bottle was capped using a white, continuous thread, child-resistant polypropylene screw cap with an […], aluminum-faced line. The packaged tablets (14 and 28 counts) were evaluated for stability at 40° C./75% RH and 25° C./60% RH. Additionally, the 14-count bottles (without cap) were evaluated for stability under open conditions at 40° C./75% RH.
For each of the impact studies, the sofosbuvir/velpatasvir SSD/voxilaprevir SSD tablets were packaged in a designated commercial packaging configuration (28-count, 100 mL HPDE bottle, coil, 1 g desiccant), and stored for 12 weeks at 25° C./60% RH and 40° C./75% RH. Tablets were also packaged in open containers (28-count, 100 mL HPDE bottle without cap) and stored for 4 weeks at 40° C./75% RH and for 1 week at 50° C./92% RH.
The sofosbuvir/velpatasvir SSD/voxilaprevir SSD tablets were packaged in the designated commercial packaging configuration (28-count, 100 mL HPDE bottle, coil, 1 g desiccant), and stored for 6 months at 25° C./60% RH and 40° C./75% RH.

[6] = Tablet dissolution as a function of medium pH and composition (Apparatus II, 75 rpm, 900 mL, 37° C.); assay type: physicochemical; settings: Formulation G tablets
[7] = Photostability (light exposure, ICH Q1B); assay type: physicochemical; settings: tablets film-coated to weight gains of 2.1 to 5.4%, ICH Q1B
Description: In some embodiments, and the Examples presented herein, the tablet formulation includes sofosbuvir having Form 6 and, optionally, a trace amount of Form 7.
Tablet cores and film-coated tablets were evaluated per ICH Q1B guidelines with a total of illumination of more than 1.2 million-lux hours and a total irradiance of more than 200 W·hr/m^2.

[8] = Relative bioavailability study of voxilaprevir amorphous free acid tablets vs Form VI tablets in healthy subjects (fasted, fed); assay type: in vivo, human; settings: for AUC(0-inf) / Cmax: human, in vivo, oral, 100 mg
Excerpt: Accordingly, a spray dried dispersion of voxilaprevir in the amorphous free acid form was selected for incorporation into the tablet formulation.

[9] = Voxilaprevir Form VI single and multiple oral dose pharmacokinetics in healthy subjects; assay type: in vivo, human; settings: for Cmax / half-life / Tmax / AUC / AUC(0-inf) / AUC(0-t): human, plasma; for Cmax / AUC / AUC(0-inf) / AUC(0-t): mean
Description: Pub. No. 2015/0175625 A1. Initial studies were conducted using the crystalline Form VI of voxilaprevir. As described previously, Form VI of voxilaprevir is characterized by an X-ray powder diffractogram comprising the following peaks (±0.2°): at 14.6, 15.4, and 20.0°2θ, as determined on a diffractometer using Cu-Kα radiation. Following single and multiple oral doses of voxilaprevir, Form VI, maximum plasma concentrations occurred between 2.0 and 5.0 hours (median tmax). […] Steady-state concentrations of voxilaprevir, Form VI were achieved after 7 days of once-daily dosing across all dose levels (Table 2).

[10] = 100 mg tablets, healthy subjects
[11] = Amorphous Free Acid 100 mg, healthy subjects, fed (with moderate food)
[12] = single dose 100 mg, healthy subjects, fasted (N = 15)

COC[C@H]1C[C@@H](c2ncc(-c3ccc4c(c3)COc3cc5c(ccc6nc([C@@H]7CC[C@H](C)N7C(=O)[C@@H](NC(=O)OC)C(C)C)[nH]c65)cc3-4)[nH]2)N(C(=O)[C@H](NC(=O)OC)c2ccccc2)C1 [amorphous velpatasvir free base]
tendency to crystallize in the presence of pre-existing crystalline voxilaprevir [1]: no tendency to crystallize

CC[C@@H]1[C@@H]2CN(C(=O)[C@H](C(C)(C)C)NC(=O)O[C@@H]3C[C@H]3CCCCC(F)(F)c3nc4ccc(OC)cc4nc3O2)[C@@H]1C(=O)N[C@]1(C(=O)NS(=O)(=O)C2(C)CC2)C[C@H]1C(F)F [Voxilaprevir, (1aR,5S,8S,9S,10R,22aR)-5-tert-butyl-N-{(1R,2R)-2-(difluoromethyl)-1-[(1-methylcyclopropanesulfonyl)carbamoyl]cyclopropyl}-9-ethyl-18,18-difluoro-14-methoxy-3,6-dioxo-1,1a,3,4,5,6,9,10,18,19,20,21,22,22a-tetradecahydro-8H-7,10-methanocyclopropa[18,19][1,10,3,6]dioxadiazacyclononadecino[11,12-b]quinoxaline-8-carboxamide]
dissolution at 30 minutes ([2]; SSD potency tablets Lot A): 85% | dissolution at 30 minutes ([2]; SSD potency tablets Lot B): 91% | dissolution at 30 minutes ([2]; SSD potency tablets Lots C and D): 92% | released at 30 minutes ([2]; spiked tablets containing 5% w/w voxilaprevir Form VIII or Form X): 84% | released at 30 minutes ([2]; spiked tablets containing 10% w/w voxilaprevir Form VIII or Form X): 80% | released at 30 minutes ([2]; spiked tablets containing 20% w/w voxilaprevir Form VIII or Form X): 73% | released at 30 minutes ([2]; tablets containing 0% w/w crystalline voxilaprevir): 91% | released at 30 minutes ([2]; tablets containing neat amorphous voxilaprevir free acid (physical mixture with copovidone)): 76% | released at 30 minutes [3]: 91% | aqueous solubility, pH dependence [4]: pH-dependent solubility | total impurities/degradation products ([5]; desiccant/packaging study tablets, 6 months): 0.0% | total impurities/degradation products ([5]; tablet Lots A-D from sub-potent/super-potent VEL SSD and VOX SSD): 0.7% | total impurities/degradation products ([5]; tablets from VEL SSD with 6.0% residual ethanol and VOX SSD with 2.1% residual acetone): 0.0% | total impurities/degradation products ([5]; tablets from VEL SSD with 7.0% and VOX SSD with 3.2% water content): 0.0% | dissolution at 60 minutes in pH 4.0 and 5.0 containing 2.0% w/v polysorbate 80 [6]: complete dissolution | dissolution in pH 2.0, 4.5 and 6.8 buffers, FaSSIF and FeSSIF [6]: Incomplete dissolution | level of degradation products [7]: 0.0%

CC[C@@H]1[C@@H]2CN(C(=O)[C@H](C(C)(C)C)NC(=O)O[C@@H]3C[C@H]3CCCCC(F)(F)c3nc4ccc(OC)cc4nc3O2)[C@@H]1C(=O)N[C@]1(C(=O)NS(=O)(=O)C2(C)CC2)C[C@H]1C(F)F [Amorphous Free Acid]
higher Cmax compared to tablets (2×50 mg) comprising voxilaprevir, Form VI [8, 10]: ~43% | higher exposure (AUC) compared to tablets (2×50 mg) comprising voxilaprevir, Form VI [8, 10]: approximately 9% | AUC(0-inf) ([8]; Amorphous Free Acid 100 mg, healthy subjects, fasted (N = 15)): 367 ng·h/mL | AUC(0-inf) [8, 11]: 494 ng·h/mL | Cmax [8, 11]: 44.2 ng/mL | AUC(0-inf) [8, 12]: 367 ng·h/mL | Cmax [8, 12]: 32.7 ng/mL | Cmax Geometric Least Square Ratio, Amorphous Free Acid/Form VI GMR ([8]; single dose, fasted): 1.43 | tendency to crystallize in the presence of pre-existing crystalline voxilaprevir [1]: no tendency to crystallize

CC[C@@H]1[C@@H]2CN(C(=O)[C@H](C(C)(C)C)NC(=O)O[C@@H]3C[C@H]3CCCCC(F)(F)c3nc4ccc(OC)cc4nc3O2)[C@@H]1C(=O)N[C@]1(C(=O)NS(=O)(=O)C2(C)CC2)C[C@H]1C(F)F [voxilaprevir, Form VI]
physical stability of crystal form ([1]; converted to crystalline Form VIII): physically metastable | Cmax ([9]; oral, 30 mg, multiple dose 30 mg): 7.3 ng/mL | half-life ([9]; oral, 30 mg, multiple dose 30 mg, median): 41 h | Tmax ([9]; oral, 30 mg, multiple dose 30 mg, median, read-out: tmax): 5 h | Cmax ([9]; oral, 30 mg, single dose 30 mg): 3.7 ng/mL | half-life ([9]; oral, 30 mg, single dose 30 mg, median): 9.37 h | Tmax ([9]; oral, 30 mg, single dose 30 mg, median, read-out: tmax): 4 h | Cmax ([9]; oral, 100 mg, multiple dose 100 mg): 46 ng/mL | half-life ([9]; oral, 100 mg, multiple dose 100 mg, median): 30.5 h | Tmax ([9]; oral, 100 mg, multiple dose 100 mg, median, read-out: tmax): 5 h | Cmax ([9]; oral, 100 mg, single dose 100 mg): 17.6 ng/mL | half-life ([9]; oral, 100 mg, single dose 100 mg, median): 36.7 h | Tmax ([9]; oral, 100 mg, single dose 100 mg, median, read-out: tmax): 3 h | Cmax ([9]; oral, 300 mg, multiple dose 300 mg): 155 ng/mL | half-life ([9]; oral, 300 mg, multiple dose 300 mg, median): 27.6 h | Tmax ([9]; oral, 300 mg, multiple dose 300 mg, median, read-out: tmax): 5 h | Cmax ([9]; oral, 300 mg, single dose 300 mg): 34.5 ng/mL | half-life ([9]; oral, 300 mg, single dose 300 mg, median): 35.5 h | Tmax ([9]; oral, 300 mg, single dose 300 mg, median, read-out: tmax): 2 h | AUC ([9]; oral, multiple dose 30 mg): 74.2 ng·h/mL | AUC ([9]; oral, multiple dose 100 mg): 364 ng·h/mL | AUC ([9]; oral, multiple dose 300 mg): 1030 ng·h/mL | AUC(0-inf) ([9]; oral, single dose 30 mg): 56.9 ng·h/mL | AUC(0-t) ([9]; oral, single dose 30 mg): 33 ng·h/mL | AUC(0-inf) ([9]; oral, single dose 100 mg): 245 ng·h/mL | AUC(0-t) ([9]; oral, single dose 100 mg): 188 ng·h/mL | AUC(0-inf) ([9]; oral, single dose 300 mg): 485 ng·h/mL | AUC(0-t) ([9]; oral, single dose 300 mg): 425 ng·h/mL | Tmax ([9]; po, single and multiple oral doses, read-out: time of maximum plasma concentrations (median tmax)): 2 to 5 h | dose linearity of pharmacokinetics ([9]; single and multiple dosing, 30 to 300 mg, healthy subjects): dose-linear pharmacokinetics
